Here are results for 21 molecules from ChEMBL document CHEMBL1129290 (J Med Chem, 1996).

A word on the inhibition: it is the relative decrease from the control value, in per cent. Low readings indicate a weak effect, high ones a strong effect. By ED50 is commonly meant the dose at which the effect has come halfway, by size or by number of responders. Broadly, the IC50 is the midpoint of a concentration-inhibition curve. Broadly, the half-life is how long it takes for the measured level to halve. High values mean slow decline, low ones rapid decline. For orientation: bioavailability means the share of a dose that reaches the circulation, judged against a reference dose that is usually intravenous. Low readings indicate poor availability, high ones good availability.

The target in data set [1] is Cyclooxygenase (Rattus norvegicus) (UniProt P35355+Q63921). The conditions noted are these: at 30 mg/kg.
Data set [2] is filed under the species Rattus norvegicus. The experiment in a line: animal or person. The settings on record: read-out: Inhibition.
The species named for data set [3] is Rattus norvegicus. Nature of the data set: animal or person. In kind it is functional.
The species entered for data set [4] is Rattus norvegicus. Nature of the data set: animal or person. It counts as functional. This is another data set of the same source.
For data set [5], the species on record is Rattus norvegicus. The experiment in a line: animal or person. The settings on record: read-out: Inhibition. This is another data set of the same source.
The target of data set [6] is Prostaglandin G/H synthase 1 (Homo sapiens, UniProt P23219).
Prostaglandin G/H synthase 1, sequence (P23219 whole entry): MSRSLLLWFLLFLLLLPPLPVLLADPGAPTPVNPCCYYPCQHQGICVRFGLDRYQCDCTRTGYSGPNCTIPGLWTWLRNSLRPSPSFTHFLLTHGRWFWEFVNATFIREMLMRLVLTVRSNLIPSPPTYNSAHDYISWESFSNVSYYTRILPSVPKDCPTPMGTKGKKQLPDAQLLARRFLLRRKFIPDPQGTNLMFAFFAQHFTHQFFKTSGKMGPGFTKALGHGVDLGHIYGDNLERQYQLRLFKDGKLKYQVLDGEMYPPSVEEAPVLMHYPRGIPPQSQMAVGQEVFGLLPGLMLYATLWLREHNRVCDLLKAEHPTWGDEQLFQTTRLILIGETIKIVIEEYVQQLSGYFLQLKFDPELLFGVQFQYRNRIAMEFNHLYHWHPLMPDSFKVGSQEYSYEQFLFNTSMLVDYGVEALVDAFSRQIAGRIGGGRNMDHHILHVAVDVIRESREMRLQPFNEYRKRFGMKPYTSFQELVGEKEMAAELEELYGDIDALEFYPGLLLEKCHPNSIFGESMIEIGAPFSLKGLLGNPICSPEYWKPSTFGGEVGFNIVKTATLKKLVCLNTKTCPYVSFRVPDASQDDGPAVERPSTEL
For data set [7], the species on record is Rattus norvegicus. Nature of the data set: animal or person. The conditions noted are these: read-out: Inhibition. The source holds these as a separate data set.
Data set [8] in a line: in vivo. The conditions noted are these: rat.
Data set [9] can be described thus: in vivo. The conditions noted are these: rat, po, 10 mg/kg.
The species named for data set [10] is Rattus norvegicus. Nature of the data set: animal or person. The settings on record: read-out: Inhibition. This is another data set of the same source.

Regarding `COc1ccc(C2=C(c3ccc(S(C)(=O)=O)cc3)CC3(CC3)C2)cc1`, the inhibition in [1] was found to be 0%.

As to `COc1ccc(C2=C(c3ccc(S(N)(=O)=O)cc3)CC3(CC3)C2)cc1Cl`, the inhibition in vivo at 30 mg/kg in [2] was 47%. In addition, the values for the ED50 in data set [3] and in data set [4] were 0.21 mg/kg and 35.4 mg/kg, respectively. The inhibition in [1] turned out to be 47%. The inhibition in vivo at 1 mg/kg in [5] amounted to 79%.

In turn, `CS(=O)(=O)c1ccc(C2=CC3(C=C2c2ccc(F)cc2)CC3)cc1` returned a half-inhibitory concentration (IC50) in data set [6] of 1320 nM.

For the molecule `CS(=O)(=O)c1ccc(C2=C(c3ccc(F)cc3)CC3(CCC3)C2)cc1`, the inhibition in data set [1] amounted to 23%.

On to `COc1ccc(C2=C(c3ccc(S(C)(=O)=O)cc3)CC3(CC3)C2)cc1Cl`, for which the inhibition in vivo at 2 mg/kg in data set [7] was 12%. Also, the inhibition in vivo at 30 mg/kg in [2] came to 45%. This molecule returned an inhibition in data set [1] of 42%. The molecule further came in with an ED50 in [4] of 27.7 mg/kg.

For `COc1ccc(C2=CC3(C=C2c2ccc(S(C)(=O)=O)cc2)CC3)cc1Cl`, the IC50 in data set [6] was determined as 3380 nM.

As for `CS(=O)(=O)c1ccc(C2=C(c3ccc(F)cc3)CCC2)cc1` [SC-57666], the half-life in [8] is 1.6 h. In [9], this molecule displayed a bioavailability of 11%.

Turning to `CS(=O)(=O)c1ccc(C2=C(c3ccc(F)cc3)CC3(CC3)C2)cc1`, in data set [8], the half-life is 2.3 h. Moreover, the inhibition in vivo at 30 mg/kg in data set [2] was 31%. The bioavailability in [9] is 58%. In [3], this molecule displayed an ED50 of 0.3 mg/kg. In data set [1], the inhibition is 49%. In addition, the inhibition in vivo at 1 mg/kg in data set [5] came to 68%.

`COc1ccc(C2=C(c3ccc(S(C)(=O)=O)cc3)CC3(CC3)C2)cc1Br`: in [1], the inhibition came to 21%.

Turning to `NS(=O)(=O)c1ccc(C2=C(c3ccc(F)c(F)c3)CC3(CC3)C2)cc1`, the inhibition in data set [1] turned out to be 18%.

For `COc1ccc(C2=C(c3ccc(S(C)(=O)=O)cc3)CC3(CC3)C2)cc1F`, in data set [7], the inhibition in vivo at 2 mg/kg was found to be 63%. Also, the inhibition in vivo at 30 mg/kg in [2] is 19%. This molecule also showed an inhibition in [1] of 30%.

Regarding `NS(=O)(=O)c1ccc(C2=C(c3ccc(C(F)(F)F)cc3)CC3(CC3)C2)cc1`, in data set [7], the inhibition in vivo at 2 mg/kg stood at 92%. Moreover, the inhibition in vivo at 30 mg/kg in [2] is 40%. Moreover, the 50% effective dose (ED50) is 0.04 mg/kg in data set [3] and 46.7 mg/kg in [4]. In data set [1], this molecule registered an inhibition of 46%.

For the molecule `CS(=O)(=O)c1ccc(C2=C(c3ccc(OC(F)(F)F)cc3)CC3(CC3)C2)cc1`, the inhibition in data set [1] amounted to 20%.

Molecule `CS(=O)(=O)c1ccc(C2=C(c3ccc(C(F)(F)F)cc3)CC3(CC3)C2)cc1` gave an inhibition in data set [1] of 35%.

Take `CS(=O)(=O)c1ccc(C2=C(c3ccc(F)c(Cl)c3)CC3(CC3)C2)cc1`: the inhibition in [1] is 38%.

Take `COc1ccc(C2=C(c3ccc(S(N)(=O)=O)cc3)CC3(CC3)C2)cc1F`: the inhibition in vivo at 30 mg/kg in [2] was determined as 38%. The ED50 in data set [3] turned out to be 0.08 mg/kg; in data set [4], 40.8 mg/kg. In data set [1], this molecule had an inhibition of 40%. Further, in data set [5], the inhibition in vivo at 1 mg/kg worked out at 89%.

Take `CS(=O)(=O)c1ccc(C2=C(c3ccc(F)c(F)c3)CC3(CC3)C2)cc1`: in data set [1], the inhibition amounted to 23%.

Regarding `NS(=O)(=O)c1ccc(C2=C(c3ccc(F)cc3)CC3(CC3)C2)cc1`, the median effective dose (ED50) in data set [3] worked out at 0.24 mg/kg; in data set [4], 17.6 mg/kg. Further, the inhibition in data set [1] is 60%. In addition, in data set [5], the inhibition in vivo at 1 mg/kg was determined as 85%.

In data set [6], `NS(=O)(=O)c1ccc(C2=C(c3ccc(Cl)c(Cl)c3)CC3(CC3)C2)cc1` had a half-inhibitory concentration (IC50) of 380 nM. Moreover, the ED50 in data set [4] was determined as 31.3 mg/kg. For the same molecule, the inhibition in vivo at 0.3 mg/kg in data set [10] amounted to 72%.

On to `COc1c(Cl)cc(C2=C(c3ccc(S(C)(=O)=O)cc3)CC3(CC3)C2)cc1Cl`, for which the inhibition in vivo at 30 mg/kg in data set [2] is 50%. Besides, the median effective dose (ED50) was determined as 0.52 mg/kg in [3] and 32.7 mg/kg in data set [4]. Besides, in data set [1], the inhibition is 44%. Moreover, the inhibition in vivo at 1 mg/kg in data set [5] worked out at 57%.

Consider `CS(=O)(=O)c1ccc(C2=C(c3ccc(Cl)c(Cl)c3)CC3(CC3)C2)cc1`, for which the inhibition in data set [1] amounted to 23%.
